Where a name gives a salt, the structure may show the parent alone.
system: SK-MEL-28 cells; experiment: Cytotoxicity in low glucose condition (MTT); format: cell-based; conditions: Homo sapiens, SK-MEL-28, 0.75 mM glucose, 72 hours, read-out: SK-MEL-28 0.75 mM glucose Cell viability (IC50 ia)
Description: The inhibition of oxidative phosphorylation (OXPHOS) is not cytotoxic to cells in normal glucose condition, because it is postulated that normal cells have compensatory mechanism under energy stress conditions such as low glucose. However OXPHOS inhibitors show cytotoxic effect on cells in the glucose deprived condition (BirsoyK, 2014). The glucose deprived condition is observed in tumor microenvironment potentially due to poor angiogenesis. Therefore the OXPHOS inhibitors may show anti-cancer effect on cancer cells in low glucose condition that may depict tumor microenvironment.
The compounds of the present invention were evaluated their cytotoxicity in SK-MEL-28, melanoma with 0.75 mM glucose supplement. The cytotoxic effect is compared with the cytotoxicity caused by phenformin. The cytotoxicity in low glucose condition is correlated with inhibition of oxygen consumption in mitochondria.
SK-MEL-28 (HTB-72) is a melanoma cell line obtained from ATCC (MA) and cultured in RPMI 1640 media (Lifetechnologies, CA) with supplement of 10% FBS and antibiotic-antimycotic (Lifetechnologies, CA). RPMI 1640 (-Glucose) was used to prepare low glucose media and 0.75 mM glucose was supplied with D-(+)-glucose solution from Sigma. SK-MEL-28 cells were separated from culture plate using 0.5% trypsin-EDTA and 5,000 cells were plated in 96-well plate with low glucose media. After incubation at 37° C. for 24 hour, 5% CO2, the cells were treated with the compounds of present invention in FBS-free media for 72 hours. The cytotoxicity was measured by the MTT (AMRESCO, OH) assay. NADH-dependent cellular oxidoreductase reduces MTT to its insoluble […] with purple color. The enzyme depends on cell number or energy state of cells. 10 μl of 5 mg/ml MIT solution was added to each well of the assay plate and skip the well for blank. The plate was incubated at 37° C. and 5% CO2 for 2 hours. The MTT solution was removed from each well and 100 μl of DMSO was added. The plate was read by VICTOR X3 Multilabel Counter at the wavelength of 550 nm. In Table 2, the levels of IC50 are evaluated by the following criteria.

| SMILES | IC50 [µM] |
| --- | --- |
| N=C(N)NC(=N)NCCc1ccccc1Cl [Example 3, N-1-(2-chloro)phenethylbiguanide hydrochloride] | 5 to 10 |
| Cc1cc(F)ccc1CCNC(=N)NC(=N)N [Example 17, N-1-(4-fluoro-2-methyl)phenethylbiguanide hydrochloride] | > 10 |
| Cc1ccc(CNC(=N)NC(=N)N)c(C)c1 [Example 18, N-1-(2,4-dimethyl)benzylbiguanide hydrochloride] | > 10 |
| Cc1ccccc1CCNC(=N)NC(=N)N [Example 22, N-1-(2-methyl)phenethylbiguanide hydrochloride] | > 10 |
| N=C(N)NC(=N)NCCc1ccccc1Br [Example 26, N-1-(2-bromo)phenethylbiguanide hydrochloride] | < 5 |
| CNC(=N)NC(=N)NCCc1ccccc1 [Example 124, N-1-methyl-N-5-phenethylbiguanide hydrochloride] | > 10 |
| CONC(=N)NC(=N)NCCc1ccc(Cl)c(Cl)c1 [Example 129, N-1-methoxy-N-5-(3,4-dichloro)phenethylbiguanide hydrochloride] | > 10 |
| C/N=C(\NC)NC(=N)NCCc1ccc(Cl)c(Cl)c1 [Example 132, N-1-methyl-N-2-methyl-N-5-(3,4-dichloro)phenethylbiguanide hydrochloride] | > 10 |

system: A549 cells; experiment: Inhibition of OCR (XF Analyzer); format: cell-based; conditions: Homo sapiens, A549, 24 h
Description: The electron transfer complex in mitochondria is composed of 5 complexes. The complex I accept electrons from NADH produced from glycolysis and TCA cycle and the electrons move to complex […] and the electron is finally transferred to O2 and water molecule is generated. During the electron transfer, proton gradient is generated and the chemical gradient is a driving source to synthesize ATP at complex V. The mitochondrial inhibition of complex I indirectly assessed by measuring the oxygen consumption rate (OCR) at complex IV. […] The solution outside of cells becomes acidic (lower pH) as lactate is transported to outside of cells. OCR and Extracellular acidification rate (ECAR) are determined by XF Analyzer (Seahorse Biosciences).
A549 cells were purchased from American Type Tissue Culture Collection ([…]) and cultured in RPMI 1640 supplied with 10% fetal bovine serum (FBS) and antibiotic-antimycotic (Lifetech, CA). A549 cells were separated with 0.5% Trypsin-EDTA and 3,000 cells were plated on 1 mg/ml poly-D-lysine (Sigma, P6407) coated XF 96 well […]. A549 cells were allowed to adhere to the wells for 24 hours under the condition of temperature, 37° C. and 5% CO2 The sensor cartridge of XF Analyzer was soaked in 200 Ad of Calibrant solution (Seahorse, MA) in a clear 96-well plate at 37° C. for 24 hours. The compounds of the present invention were diluted with RPMI 1640 without FBS, transferred to A549 cells on XF 96 well plate, and incubated further for 23 hours at 37° C. and 5% CO2. After incubation, the compound solution was exchanged with pre-warmed and pH adjusted (pH7.4) XF assay media (Seahorse) supplied with 15 mM D-glucose (Sigma), 15 mM sodium pyruvate (Lifetechnologies, CA) and 4 mM L-glutamine (Lifetechnologies, CA). The compounds of present invention were prepared in XF Assay media and added to the assay plate. The assay plate was equilibrated in XF Analyzer for 1 hour, and the reading were started by sensor cartridge. The cytotoxicity assay was followed using Cyquant (Lifetechnologies, CA) in order to calibrate the inhibition with cytotoxicity of compounds. The concentrations of the compounds were tested at […] and IC50 value was obtained from the inhibited values. That is, from OCR inhibition values at each concentration of the compound, IC50 was calculated according to Prism's dose response curve fitting.
In Table 1, the levels of OCR IC50 are evaluated by the following.

| SMILES | IC50 [µM] |
| --- | --- |
| N=C(N)NC(=N)NCCc1ccccc1Cl [Example 3, N-1-(2-chloro)phenethylbiguanide hydrochloride] | < 2 |
| N=C(N)NC(=N)NCCc1ccc(Cl)cc1Cl [Example 4, N-1-(2,4-dichloro)phenethylbiguanide hydrochloride] | 2 to 5 |
| COc1cccc(CCNC(=N)NC(=N)N)c1 [Example 8, N-1-(3-methoxy)phenethylbiguanide hydrochloride] | 2 to 5 |
| N=C(N)NC(=N)NCCc1ccccc1F [Example 9, N-1-(2-fluoro)phenethylbiguanide hydrochloride] | > 5 |
| Cc1ccc(CCNC(=N)NC(=N)N)cc1 [Example 10, N-1-(4-methyl)phenethylbiguanide hydrochloride] | > 5 |
| CC(C)c1ccc(CCNC(=N)NC(=N)N)cc1 [Example 14, N-1-(4-isopropyl)phenethylbiguanide hydrochloride] | > 5 |
| Cc1ccc(CCNC(=N)NC(=N)N)c(C)c1 [Example 16, N-1-(2,4-dimethyl)phenethylbiguanide hydrochloride] | 2 to 5 |
| Cc1cc(F)ccc1CCNC(=N)NC(=N)N [Example 17, N-1-(4-fluoro-2-methyl)phenethylbiguanide hydrochloride] | 2 to 5 |
| Cc1ccc(CNC(=N)NC(=N)N)c(C)c1 [Example 18, N-1-(2,4-dimethyl)benzylbiguanide hydrochloride] | > 5 |
| Cc1ccccc1CCNC(=N)NC(=N)N [Example 22, N-1-(2-methyl)phenethylbiguanide hydrochloride] | < 2 |
| N=C(N)NC(=N)NCCc1ccccc1Br [Example 26, N-1-(2-bromo)phenethylbiguanide hydrochloride] | < 2 |
| N=C(N)NC(=N)NCCc1ccc(CCc2ccccc2)cc1 [Example 27, N-1-(4-phenethyl)phenethylbiguanide hydrochloride] | 2 to 5 |
| Cc1ccc(CNC(=N)NC(=N)N)cc1C [Example 28, N-1-(3,4-dimethyl)benzylbiguanide hydrochloride] | 2 to 5 |
| N=C(N)NC(=N)NCc1cccc2ccccc12 [Example 31, hydrochloride] | > 5 |
| N=C(N)NC(=N)NCCC1CCCCC1 [Example 32, N-1-2-cyclohexylethylbiguanide hydrochloride] | > 5 |
| N=C(N)NC(=N)NCc1cccc(Cl)c1 [Example 41, N-1-(3-chloro)benzylbiguanide hydrochloride] | > 5 |
| N=C(N)NC(=N)NCc1ccc2ccccc2c1 [Example 45, hydrochloride] | 2 to 5 |
| N=C(N)NC(=N)NCCCc1ccc(C2CC2)cc1 [Example 47, N-1-1-(3-(4-cyclopropylphenyl)propyl)biguanide hydrochloride] | > 5 |
| N=C(N)NC(=N)NCc1ccc(Oc2ccccc2)cc1 [Example 56, N-1-(4-phenoxy)benzylbiguanide hydrochloride] | > 5 |
| N=C(N)NC(=N)NCCc1ccc(Br)c(Cl)c1 [Example 73, N-1-(4-bromo-3-chloro)phenethylbiguanide hydrochloride] | 2 to 5 |
| CCCNC(=N)NC(=N)NCCc1ccc2c(c1)CCCC2 [Example 127, N-1-propyl-N-5-(2-(5,6,7,8-tetrahydronaphthalen-2-yl)ethyl) biguanide hydrochloride] | > 5 |

| SMILES | IC50 [µM] |
| --- | --- |
| N=C(N)NC1Cc2ccccc2C1 [Example 137, 1-(2,3-dihydro-1H-inden-2-yl)guanide hydrochloride] | 2 to 5 |
| Cc1ccc(CCNC(=N)N)cc1 [Example 138, 1-(4-methylphenethyl)guanide hydrochloride] | 2 to 5 |
| N=C(N)NCCc1ccc(Cl)c(Cl)c1 [Example 140, 1-(3,4-dichlorophenethyl)guanide hydrochloride] | 2 to 5 |
| Cc1ccc(CNC(=N)N)cc1 [Example 151, 1-(4-methylbenzyl)guanide hydrochloride] | > 5 |
| Cc1ccc(CCNC(=N)N)c(C)c1 [Example 155, 1-(2,4-dimethylphenethyl)guanide hydrochloride] | < 2 |
| N=C(N)NCCCc1ccccc1 [Example 165, 1-(3-phenylpropyl)guanide hydrochloride] | 2 to 5 |
| CN(CCc1ccc(F)cc1)C(=N)N [Example 174, 1-(4-fluorophenethyl)-1-methyl guanide hydrochloride] | > 5 |
| C[C@H](CNC(=N)N)c1ccccc1 [Example 175, (S)-1-(2-phenylpropyl)guanide hydrochloride] | > 5 |
| N=C(N)NCCc1cccc(F)c1 [Example 178, 1-(3-fluorophenethyl)guanide hydrochloride] | > 5 |
| N=C(N)NCc1ccc(Br)cc1 [Example 184, 1-(4-bromobenzyl)guanide hydrochloride] | > 5 |
| COc1ccc(CCCNC(=N)N)cc1 [Example 185, 1-(3-(4-methoxyphenyl)propyl)guanide hydrochloride] | > 5 |
| N=C(N)NCCc1ccc(CCc2ccccc2)cc1 [Example 187, 1-(4-phenethylphenethyl)guanide hydrochloride] | > 5 |
| CN(CCCc1ccccc1)C(=N)N [Example 188, 1-methyl-1-(3-phenylpropyl)guanide hydrochloride] | > 5 |
| N=C(N)NCCC1CC1 [Example 190, 1-(2-cyclopropylethyl)guanide hydrochloride] | 2 to 5 |
| N=C(N)NCCc1cccc2c1CCCC2 [Example 192, hydrochloride] | 2 to 5 |
| N=C(N)NCc1ccc2ccccc2c1 [Example 198, 11-(naphthalen-2-ylmethyl)guanide hydrochloride] | 2 to 5 |
| N=C(N)NCc1ccc(-c2ccccc2)cc1 [Example 200, N-(4-phenyl)benzyl guanide hydrochloride] | 2 to 5 |
| N=C(N)NCc1ccc(Oc2ccccc2)cc1 [Example 203, 1-(4-phenoxybenzyl) guanide hydrochloride] | 2 to 5 |
| Cc1cc(CCNC(=N)N)ccc1Cl [Example 206, 1-(4-chloro-3-methylphenthyl)guanide hydrochloride] | < 2 |
| Cc1cc(CNC(=N)N)ccc1Br [Example 207, 1-(4-bromo-3-methylbenzyl) guanide hydrochloride] | > 5 |

From patent US11465989B2, “Guanidine compounds and use thereof” (IMMUNOMET THERAPEUTICS INC., priority 2014, dated 2022)
